Test results reported in ChEMBL document CHEMBL1201862, “PubChem BioAssay data set” (2004).
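Cultured in 96-well plates, cells were exposed to test compound for 48 hours across five concentrations. The concentration for 50% growth inhibition is given as GI50.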 Active and inactive are the calls of the source. Cut-off read from the data, not from the text of the source: active = GI50 up to about 1.1 µM and inactive = higher. Starred links: 1 amine or outer side, 2 acyl side, 3 side chain; linkers in the order of their positions; H or OH if unused. Residues, ends and D or L forms follow the SMILES beside them. *: point of attachment. γGlu = O=C(O)[CH](CCC(=O)[*:2])N[*:1]; NHOH = ON*

What was measured:
Assay in all cases: NCI anticancer screen, dose series, 48 h
786-0 = test system: 786-0
A498 = test system: A498
A549 = test system: A549
ACHN = test system: ACHN
BT-549 = test system: BT-549
CAKI-1 = test system: CAKI-1
CCRF-CEM = test system: CCRF-CEM
COLO 205 = test system: COLO 205
DU-145 = test system: DU-145
EKVX = test system: EKVX
HCC 2998 = test system: HCC 2998
HCT-116 = test system: HCT-116
HCT-15 = test system: HCT-15
HOP-62 = test system: HOP-62
HOP-92 = test system: HOP-92
HT-29 = test system: HT-29
Hs-578T = test system: Hs-578T
IGROV-1 = test system: IGROV-1
K562 = test system: K562
KM12 = test system: KM12
LOX IMVI = test system: LOX IMVI
M14 = test system: M14
MCF7 = test system: MCF7
MDA-MB-231 = test system: MDA-MB-231
MDA-MB-435 = test system: MDA-MB-435
MDA-N = test system: MDA-N
MOLT-4 = test system: MOLT-4
Malme-3M = test system: Malme-3M
NCI-H226 = test system: NCI-H226
NCI-H23 = test system: NCI-H23
NCI-H460 = test system: NCI-H460
NCI-H522 = test system: NCI-H522
NCI/ADR-RES = test system: NCI/ADR-RES
OVCAR-3 = test system: OVCAR-3
OVCAR-4 = test system: OVCAR-4
OVCAR-5 = test system: OVCAR-5
OVCAR-8 = test system: OVCAR-8
PC-3 = test system: PC-3
RPMI-8226 = test system: RPMI-8226
RXF 393 = test system: RXF 393
SF-268 = test system: SF-268
SF-295 = test system: SF-295
SF-539 = test system: SF-539
SK-MEL-28 = test system: SK-MEL-28
SK-MEL-2 = test system: SK-MEL-2
SK-MEL-5 = test system: SK-MEL-5
SK-OV-3 = test system: SK-OV-3
SN12C = test system: SN12C
SNB-19 = test system: SNB-19
SNB-75 = test system: SNB-75
SW-620 = test system: SW-620
T47D = test system: T47D
TK-10 = test system: TK-10
U-251 = test system: U-251
UACC-257 = test system: UACC-257
UACC-62 = test system: UACC-62
UO-31 = test system: UO-31
HL-60 = test system: HL-60

Measured: GI50

Cc1cccc2c(O)c3c(O)cc(O)cc3nc12
inactive: 786-0 > 10 µM | A498 > 10 µM | A549 > 10 µM | ACHN > 10 µM | BT-549 3.61 µM | CAKI-1 > 10 µM | CCRF-CEM > 10 µM | COLO 205 > 10 µM | DU-145 > 10 µM | EKVX > 10 µM | HCC 2998 > 10 µM | HCT-116 > 10 µM | HOP-62 > 10 µM | HOP-92 > 10 µM | HT-29 > 10 µM | Hs-578T > 10 µM | IGROV-1 > 10 µM | K562 > 10 µM | KM12 > 10 µM | LOX IMVI > 10 µM | M14 > 10 µM | MCF7 > 10 µM | MDA-MB-231 > 10 µM | MDA-MB-435 > 10 µM | MDA-N > 10 µM | MOLT-4 > 10 µM | Malme-3M > 10 µM | NCI-H226 > 10 µM | NCI-H23 > 10 µM | NCI-H460 > 10 µM | NCI-H522 > 10 µM | NCI/ADR-RES > 10 µM | OVCAR-3 > 10 µM | OVCAR-4 > 10 µM | OVCAR-5 > 10 µM | OVCAR-8 > 10 µM | PC-3 > 10 µM | RPMI-8226 > 10 µM | RXF 393 > 10 µM | SF-268 > 10 µM | SF-295 > 10 µM | SF-539 6.12 µM | SK-MEL-28 > 10 µM | SK-MEL-2 > 10 µM | SK-MEL-5 9.71 µM | SK-OV-3 > 10 µM | SN12C > 10 µM | SNB-19 > 10 µM | SNB-75 7.24 µM | SW-620 > 10 µM | T47D > 10 µM | TK-10 > 10 µM | U-251 > 10 µM | UACC-257 > 10 µM | UACC-62 > 10 µM | UO-31 > 10 µM
> 10 µM: HCT-15

Cc1cc(C)nc(NS(=O)(=O)c2ccc(NN=c3c4ccccc4n(C)c4ccccc34)cc2)n1
32.7 µM: HCT-15
inactive: 786-0 30.2 µM | A549 35.4 µM | ACHN 21.6 µM | BT-549 8.95 µM | CAKI-1 21.5 µM | CCRF-CEM 15.7 µM | COLO 205 29.7 µM | DU-145 37 µM | EKVX 26.4 µM | HCC 2998 28.3 µM | HCT-116 25.7 µM | HL-60 28.9 µM | HOP-62 60.5 µM | HOP-92 15.6 µM | HT-29 33.3 µM | Hs-578T 32.4 µM | IGROV-1 45.8 µM | K562 16.7 µM | KM12 52.7 µM | LOX IMVI 23.7 µM | M14 35.5 µM | MCF7 17.3 µM | MDA-MB-231 21.3 µM | MDA-MB-435 23.8 µM | MDA-N 22.2 µM | MOLT-4 15.5 µM | Malme-3M 35.6 µM | NCI-H226 40.2 µM | NCI-H23 25.6 µM | NCI-H460 29.6 µM | NCI-H522 13.8 µM | NCI/ADR-RES 38.2 µM | OVCAR-3 30.2 µM | OVCAR-4 23.6 µM | OVCAR-5 26.9 µM | OVCAR-8 30.1 µM | PC-3 22 µM | RPMI-8226 27.5 µM | RXF 393 7.62 µM | SF-268 25.6 µM | SF-295 44.7 µM | SF-539 44.4 µM | SK-MEL-28 37 µM | SK-MEL-2 15.1 µM | SK-MEL-5 17.2 µM | SK-OV-3 27.2 µM | SN12C 42.8 µM | SNB-19 42.3 µM | SNB-75 12.7 µM | SW-620 26.1 µM | T47D 13.9 µM | TK-10 28.6 µM | U-251 34.5 µM | UACC-257 39.3 µM | UACC-62 20.8 µM | UO-31 16.6 µM

NC(CNO)C(=O)O (stereo not drawn)
inactive: 786-0 > 100 µM | A498 > 100 µM | A549 > 100 µM | ACHN > 100 µM | BT-549 > 100 µM | CAKI-1 > 100 µM | COLO 205 > 100 µM | DU-145 > 100 µM | EKVX > 100 µM | HCT-116 > 100 µM | HL-60 6.79 µM | HOP-62 > 100 µM | HOP-92 > 100 µM | HT-29 > 100 µM | Hs-578T > 100 µM | IGROV-1 > 100 µM | KM12 > 100 µM | LOX IMVI > 100 µM | M14 > 100 µM | MCF7 > 100 µM | MDA-MB-231 > 100 µM | MDA-MB-435 > 100 µM | MDA-N > 100 µM | Malme-3M > 100 µM | NCI-H226 > 100 µM | NCI-H23 > 100 µM | NCI-H460 > 100 µM | NCI-H522 > 100 µM | NCI/ADR-RES > 100 µM | OVCAR-3 > 100 µM | OVCAR-4 > 100 µM | OVCAR-5 > 100 µM | OVCAR-8 > 100 µM | PC-3 > 100 µM | RPMI-8226 > 100 µM | RXF 393 > 100 µM | SF-268 > 100 µM | SF-295 > 100 µM | SF-539 > 100 µM | SK-MEL-28 > 100 µM | SK-MEL-2 > 100 µM | SK-MEL-5 > 100 µM | SK-OV-3 > 100 µM | SN12C > 100 µM | SNB-19 > 100 µM | SNB-75 > 100 µM | SW-620 > 100 µM | T47D > 100 µM | TK-10 > 100 µM | U-251 > 100 µM | UACC-257 > 100 µM | UACC-62 > 100 µM | UO-31 > 100 µM
> 100 µM: HCT-15

CCOP(=O)(OCC)C(N)c1ccc(Cl)cc1 (stereo not drawn)
inactive: 786-0 > 100 µM | A498 > 100 µM | A549 > 100 µM | ACHN > 100 µM | BT-549 > 100 µM | CAKI-1 > 100 µM | CCRF-CEM > 100 µM | COLO 205 > 100 µM | DU-145 > 100 µM | EKVX > 100 µM | HCT-116 > 100 µM | HL-60 > 100 µM | HOP-92 > 100 µM | HT-29 > 100 µM | Hs-578T > 100 µM | IGROV-1 > 100 µM | KM12 > 100 µM | LOX IMVI > 100 µM | M14 > 100 µM | MCF7 > 100 µM | MDA-MB-231 > 100 µM | MDA-MB-435 > 100 µM | MDA-N > 100 µM | MOLT-4 > 100 µM | Malme-3M > 100 µM | NCI-H23 > 100 µM | NCI-H460 > 100 µM | NCI-H522 > 100 µM | NCI/ADR-RES > 100 µM | OVCAR-4 > 100 µM | OVCAR-5 > 100 µM | OVCAR-8 > 100 µM | PC-3 > 100 µM | RPMI-8226 > 100 µM | SF-268 > 100 µM | SF-539 > 100 µM | SK-MEL-28 > 100 µM | SK-MEL-2 > 100 µM | SK-MEL-5 > 100 µM | SN12C > 100 µM | SNB-19 > 100 µM | SW-620 > 100 µM | T47D > 100 µM | TK-10 > 100 µM | U-251 > 100 µM | UACC-257 > 100 µM | UACC-62 > 100 µM
> 100 µM: HCT-15

CCOC(=O)CNC(=O)C(CCC(=O)NO)NC(=O)CCC(N)C(=O)O (stereo not drawn) (γGlu-Glu(NHOH)-Gly-OEt; configuration not given here)
> 100 µM: HCT-15
inactive: 786-0 > 100 µM | A498 > 100 µM | A549 > 100 µM | ACHN > 100 µM | BT-549 > 100 µM | CAKI-1 > 100 µM | CCRF-CEM > 100 µM | COLO 205 > 100 µM | DU-145 > 100 µM | EKVX > 100 µM | HCC 2998 > 100 µM | HCT-116 > 100 µM | HL-60 > 100 µM | HOP-62 > 100 µM | HOP-92 > 100 µM | HT-29 > 100 µM | Hs-578T > 100 µM | IGROV-1 > 100 µM | K562 > 100 µM | KM12 > 100 µM | LOX IMVI > 100 µM | M14 > 100 µM | MCF7 > 100 µM | MDA-MB-231 > 100 µM | MDA-MB-435 > 100 µM | MDA-N > 100 µM | MOLT-4 > 100 µM | NCI-H226 > 100 µM | NCI-H23 > 100 µM | NCI-H460 > 100 µM | NCI-H522 > 100 µM | NCI/ADR-RES > 100 µM | OVCAR-3 > 100 µM | OVCAR-4 > 100 µM | OVCAR-5 > 100 µM | OVCAR-8 > 100 µM | PC-3 > 100 µM | RPMI-8226 > 100 µM | RXF 393 > 100 µM | SF-268 > 100 µM | SF-295 > 100 µM | SF-539 > 100 µM | SK-MEL-28 > 100 µM | SK-MEL-2 > 100 µM | SK-MEL-5 > 100 µM | SK-OV-3 > 100 µM | SN12C > 100 µM | SNB-19 > 100 µM | SNB-75 > 100 µM | SW-620 > 100 µM | T47D > 100 µM | TK-10 > 100 µM | U-251 > 100 µM | UACC-257 > 100 µM | UACC-62 > 100 µM | UO-31 > 100 µM
